The term IC50 denotes the concentration needed to halve the response being measured. Low values mean greater potency, high ones weaker potency.

For experiment [1], the target named is NEP (neutral endopeptidase) (Homo sapiens, UniProt P08473). As to the kind of experiment: NEP inhibition IC50. It counts as biochemical.
For experiment [2], the target named is ACE (angiotensin converting enzyme) (Homo sapiens, UniProt P12821). As to the kind of experiment: ACE inhibition IC50. It counts as biochemical.

Molecules are shown by their SMILES.

Sequence of NEP (neutral endopeptidase) (P08473 whole entry, species assumed): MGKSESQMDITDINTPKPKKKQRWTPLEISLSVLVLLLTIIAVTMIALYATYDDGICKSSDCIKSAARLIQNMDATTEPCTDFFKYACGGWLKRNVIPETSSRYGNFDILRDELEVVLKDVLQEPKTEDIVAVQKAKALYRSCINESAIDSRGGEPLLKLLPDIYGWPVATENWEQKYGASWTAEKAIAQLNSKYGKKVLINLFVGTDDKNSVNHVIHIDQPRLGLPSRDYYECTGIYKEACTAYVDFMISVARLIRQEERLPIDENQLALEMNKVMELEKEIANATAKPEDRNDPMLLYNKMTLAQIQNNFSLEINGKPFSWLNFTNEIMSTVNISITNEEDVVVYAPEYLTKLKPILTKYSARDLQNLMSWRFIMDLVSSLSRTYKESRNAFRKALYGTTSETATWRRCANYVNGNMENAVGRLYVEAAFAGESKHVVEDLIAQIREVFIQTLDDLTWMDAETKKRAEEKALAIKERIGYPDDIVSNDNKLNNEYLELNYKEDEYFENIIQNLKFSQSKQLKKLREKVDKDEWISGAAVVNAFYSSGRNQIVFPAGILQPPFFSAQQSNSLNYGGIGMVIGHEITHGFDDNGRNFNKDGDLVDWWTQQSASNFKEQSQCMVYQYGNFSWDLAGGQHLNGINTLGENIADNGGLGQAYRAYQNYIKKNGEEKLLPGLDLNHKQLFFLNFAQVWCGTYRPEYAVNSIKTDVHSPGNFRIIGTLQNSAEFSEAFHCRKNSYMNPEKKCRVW
Sequence of ACE (angiotensin converting enzyme) (P12821 30-1306, species assumed): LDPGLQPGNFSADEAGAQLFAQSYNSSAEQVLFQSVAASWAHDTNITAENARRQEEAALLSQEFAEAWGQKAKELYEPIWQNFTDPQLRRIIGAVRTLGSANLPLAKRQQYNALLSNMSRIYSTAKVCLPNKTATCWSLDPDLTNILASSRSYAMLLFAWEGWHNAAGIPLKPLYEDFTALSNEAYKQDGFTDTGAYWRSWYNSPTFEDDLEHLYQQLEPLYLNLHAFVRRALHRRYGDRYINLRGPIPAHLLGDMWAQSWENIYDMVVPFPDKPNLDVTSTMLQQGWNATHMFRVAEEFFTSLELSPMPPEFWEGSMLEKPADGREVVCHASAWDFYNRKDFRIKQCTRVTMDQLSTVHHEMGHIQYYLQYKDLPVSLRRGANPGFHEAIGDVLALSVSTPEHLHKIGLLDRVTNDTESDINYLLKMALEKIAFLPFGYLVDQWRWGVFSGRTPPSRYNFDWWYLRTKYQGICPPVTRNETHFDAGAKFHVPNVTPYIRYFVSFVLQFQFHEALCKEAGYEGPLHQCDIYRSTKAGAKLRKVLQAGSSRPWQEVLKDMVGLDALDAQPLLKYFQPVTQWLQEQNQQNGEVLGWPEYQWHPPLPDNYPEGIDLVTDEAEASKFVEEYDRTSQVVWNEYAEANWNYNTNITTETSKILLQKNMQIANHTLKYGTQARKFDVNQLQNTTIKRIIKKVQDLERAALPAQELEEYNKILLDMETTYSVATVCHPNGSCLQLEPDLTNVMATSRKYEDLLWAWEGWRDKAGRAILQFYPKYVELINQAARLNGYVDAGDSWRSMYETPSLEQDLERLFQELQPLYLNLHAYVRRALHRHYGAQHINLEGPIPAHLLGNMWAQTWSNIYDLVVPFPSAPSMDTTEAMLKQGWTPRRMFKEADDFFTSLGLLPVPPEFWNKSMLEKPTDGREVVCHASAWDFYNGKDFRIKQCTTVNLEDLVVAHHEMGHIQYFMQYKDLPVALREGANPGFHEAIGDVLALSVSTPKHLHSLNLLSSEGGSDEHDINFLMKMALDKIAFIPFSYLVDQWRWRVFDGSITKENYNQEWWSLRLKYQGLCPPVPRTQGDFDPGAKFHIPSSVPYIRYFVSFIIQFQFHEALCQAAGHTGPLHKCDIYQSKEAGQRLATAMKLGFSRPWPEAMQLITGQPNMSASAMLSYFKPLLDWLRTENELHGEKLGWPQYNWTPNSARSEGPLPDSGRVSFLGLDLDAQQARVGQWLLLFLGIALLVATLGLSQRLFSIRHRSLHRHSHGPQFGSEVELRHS

In the case of `CS(=O)(=O)N[C@@H](CCCCN)C(=O)NC[C@H](NC1(C(=O)N[C@@H](Cc2ccc(O)cc2)C(=O)O)CCCCC1)C(=O)O`, in experiment [1], half-maximal inhibition (IC50) was put at 190 nM.

For the compound `CS(=O)(=O)N[C@@H](CCCCNC(=O)OCc1ccccc1)C(=O)NC[C@H](N[C@H](C(=O)N[C@@H](Cc1ccc(O)cc1)C(=O)O)C1CCCCC1)C(=O)O`, the figures for the half-maximal inhibitory concentration (IC50) in experiment [1] and in experiment [2] were over 300 nM and 250 nM, respectively.

As to `CS(=O)(=O)N[C@@H](CCCCN)C(=O)NC[C@H](N[C@@H](Cc1ccccc1)C(=O)N[C@@H](Cc1ccc(O)cc1)C(=O)OCCc1ccccc1)C(=O)O`, the values for the IC50 in experiment [1] and in experiment [2] were 68 nM and 175 nM, respectively.

Regarding `CCOC(=O)[C@H](CNC(=O)[C@H](CCCCNC(=O)OCc1ccccc1)NS(C)(=O)=O)N[C@@H](Cc1ccccc1)C(=O)N[C@@H](Cc1ccc(O)cc1)C(=O)O`, the IC50 in experiment [1] is over 300 nM; in experiment [2], over 1000 nM.

With `CC(C)[C@H](N[C@@H](CNC(=O)[C@H](CCCCN)NS(C)(=O)=O)C(=O)O)C(=O)N[C@@H](Cc1ccc(O)cc1)C(=O)O`, the figures for the IC50 in experiment [1] and in experiment [2] were 7 nM and 50 nM, respectively.

For the compound `CCC[C@H](N[C@@H](CNC(=O)[C@H](CCCCNC(=O)OCc1ccccc1)NS(C)(=O)=O)C(=O)O)C(=O)N[C@@H](Cc1ccc(O)cc1)C(=O)O`, the figures for the IC50 in experiment [1] and in experiment [2] were 2 nM and 15 nM, respectively.

Regarding `CS(=O)(=O)N[C@@H](CCCCN)C(=O)NC[C@H](NC(C(=O)N[C@@H](Cc1ccc(O)cc1)C(=O)O)C1CC1)C(=O)O` (single isomer, unassigned) [listing 1 of 2 here], the IC50 is over 300 nM in experiment [1] and 300 nM in experiment [2].

Consider `CS(=O)(=O)N[C@@H](CCCCNC(=O)OCc1ccccc1)C(=O)NC[C@H](N[C@@H](Cc1ccccc1)C(=O)N[C@@H](Cc1ccc(O)cc1)C(=O)O)C(=O)O`, for which the results for the IC50 in experiment [1] and in experiment [2] were 18 nM and 9 nM, respectively.

Regarding `O=C(CCCCCNC(=O)OCc1ccccc1)NC[C@H](N[C@@H](Cc1ccccc1)C(=O)N[C@@H](Cc1ccc(O)cc1)C(=O)O)C(=O)O` [drawing 100: R1=H; R5=OH; R6=OH; Z=CbzNH], the concentration for half-maximal inhibition (IC50) in experiment [1] is 30 nM; in experiment [2] it was 65 nM.

`NCCCCCC(=O)NC[C@H](N[C@@H](Cc1ccccc1)C(=O)N[C@@H](Cc1ccc(O)cc1)C(=O)O)C(=O)O` [drawing 100: R1=H; R5=OH; R6=OH; Z=NH2]: the concentration for half-maximal inhibition (IC50) was 16 nM in experiment [1] and 60 nM in experiment [2].

With `COC(=O)[C@H](CNC(=O)[C@H](CCCCN)NS(C)(=O)=O)N[C@H](C(=O)N[C@@H](Cc1ccc(O)cc1)C(=O)O)C(C)C`, the half-maximal inhibitory concentration (IC50) is over 300 nM in experiment [1] and over 1000 nM in experiment [2].

Turning to `CCN=C(NCC)NCCCC[C@H](NS(C)(=O)=O)C(=O)NC[C@H](N[C@@H](Cc1ccccc1)C(=O)N[C@@H](Cc1ccc(O)cc1)C(=O)O)C(=O)O`, the 50% inhibitory concentration (IC50) in experiment [1] turned out to be 95 nM; in experiment [2], 8 nM.

`CS(=O)(=O)Nc1cccc(C[C@H](NC(=O)[C@H](Cc2ccccc2)N[C@@H](CNC(=O)[C@H](CCCCN)NS(C)(=O)=O)C(=O)O)C(=O)O)c1`: the IC50 stood at 25 nM in experiment [1] and 15 nM in experiment [2].

As for `CCC[C@H](N[C@@H](CNC(=O)[C@H](CCCCN)NS(C)(=O)=O)C(=O)O)C(=O)N[C@@H](Cc1cccc(NS(C)(=O)=O)c1)C(=O)O`, the IC50 in experiment [1] amounted to 200 nM; in experiment [2], 40 nM.

Regarding `CCOC(=O)[C@H](CNC(=O)[C@H](CCCCN)NS(C)(=O)=O)N[C@@H](Cc1ccccc1)C(=O)N[C@@H](Cc1ccc(O)cc1)C(=O)O`, the figures for the half-maximal inhibitory concentration (IC50) in experiment [1] and in experiment [2] were 300 nM and over 1000 nM, respectively.

Take `CS(=O)(=O)N[C@@H](CCCCN)C(=O)NC[C@H](NC1(C(=O)N[C@@H](Cc2ccc(O)cc2)C(=O)O)CC1)C(=O)O`: the IC50 in experiment [1] is over 300 nM; in experiment [2] it was 150 nM.

For the compound `CCC[C@H](N[C@@H](CNC(=O)[C@H](CCCCN)NS(C)(=O)=O)C(=O)O)C(=O)N[C@@H](Cc1ccc(O)cc1)C(=O)O`, the values for the IC50 in experiment [1] and in experiment [2] were 6 nM and 30 nM, respectively.

With `CS(=O)(=O)N[C@@H](CCCCN)C(=O)NC[C@H](N[C@H](C(=O)N[C@@H](Cc1ccc(O)cc1)C(=O)O)C1CCCCC1)C(=O)O`, the IC50 was over 300 nM in experiment [1] and 121 nM in experiment [2].

As for `CCC[C@H](N[C@@H](CNC(=O)[C@H](CCCCNC(=O)OCc1ccccc1)NS(C)(=O)=O)C(=O)O)C(=O)N[C@@H](Cc1cccc(NS(C)(=O)=O)c1)C(=O)OCC`, the IC50 in experiment [1] was determined as 70 nM; in experiment [2] it was 400 nM.

For the compound `CCOC(=O)[C@H](Cc1ccc(O)cc1)NC(=O)[C@H](Cc1ccccc1)N[C@@H](CNC(=O)[C@H](CCCCNC(=O)OCc1ccccc1)NS(C)(=O)=O)C(=O)O`, the 50% inhibitory concentration (IC50) is 38 nM in experiment [1] and 50 nM in experiment [2].

`CS(=O)(=O)N[C@@H](CCCCN)C(=O)NC[C@H](NC1(C(=O)N[C@@H](Cc2ccc(O)cc2)C(=O)O)CCC1)C(=O)O`: the IC50 in experiment [1] came to 42 nM.

For the compound `CC(C)[C@H](N[C@@H](CNC(=O)[C@H](CCCCNC(=O)OCc1ccccc1)NS(C)(=O)=O)C(=O)O)C(=O)N[C@@H](Cc1ccc(O)cc1)C(=O)O`, the figures for the 50% inhibitory concentration (IC50) in experiment [1] and in experiment [2] were 2 nM and 30 nM, respectively.

Regarding `CS(=O)(=O)N[C@@H](CCCCN)C(=O)NC[C@H](NC(C(=O)N[C@@H](Cc1ccc(O)cc1)C(=O)O)C1CC1)C(=O)O` (single isomer, unassigned) [listing 2 of 2 here], the IC50 in experiment [1] worked out at 40 nM; in experiment [2], 15 nM.

Take `CCC[C@H](N[C@@H](CNC(=O)[C@H](CCCCN)NS(C)(=O)=O)C(=O)O)C(=O)N[C@@H](Cc1ccc(O)cc1)C(=O)OC`: inhibition in experiment [1] was half-maximal at 270 nM (IC50).

For the compound `CS(=O)(=O)N[C@@H](CCCCN)C(=O)NC[C@H](NC1(C(=O)N[C@@H](Cc2ccc(O)cc2)C(=O)O)CCCC1)C(=O)O`, the IC50 in experiment [1] amounted to 35 nM; in experiment [2] it was 45 nM.

For `CCC[C@H](N[C@@H](CNC(=O)[C@H](CCCCNC(=O)OCc1ccccc1)NS(C)(=O)=O)C(=O)O)C(=O)N[C@@H](Cc1ccc(O)cc1)C(=O)OC`, the IC50 in experiment [1] stood at 78 nM; in experiment [2], 300 nM.

With `COC(=O)[C@H](CNC(=O)[C@H](CCCCNC(=O)OCc1ccccc1)NS(C)(=O)=O)N[C@H](C(=O)N[C@@H](Cc1ccc(O)cc1)C(=O)O)C(C)C`, the half-maximal inhibitory concentration (IC50) is 240 nM in experiment [1] and over 1000 nM in experiment [2].

Regarding `CS(=O)(=O)N[C@@H](CCCCN)C(=O)NC[C@H](N[C@@H](Cc1ccccc1)C(=O)N[C@@H](Cc1ccc(O)cc1)C(=O)O)C(=O)O` [drawing 100: R1=CH3SO2NH; R5=OH; R6=OH; Z=NH2], the half-inhibitory concentration (IC50) in experiment [1] stood at 35 nM; in experiment [2] it was 50 nM.

Take `CCOC(=O)[C@H](Cc1ccc(O)cc1)NC(=O)[C@H](Cc1ccccc1)N[C@@H](CNC(=O)[C@H](CCCCN)NS(C)(=O)=O)C(=O)O`: the IC50 in experiment [1] turned out to be 40 nM; in experiment [2], 650 nM.

(Values after patent publication US5298492A, “Diamino acid derivatives as antihypertensives” (Schering Corporation, priority 1992, dated 1994).)
